Assay results reported in US11198695B2, “Fused ring derivative having MGAT-2 inhibitory activity” (Shionogi & Co., Ltd., priority 2017, dated 2021).

Molecular target: recombinant human MGAT2 (Homo sapiens (Human), UniProt Q3SYC2)
Assay: Measurement of human MGAT2 inhibitory activity
Type: biochemical
Settings: read-out: IC50 (concentration exhibiting 50% enzyme inhibition), Table 52
Procedure: A full-length human MGAT2 gene to which a Flag-tag had been added at the N-terminal was inserted into pFastBac (from Invitrogen). A recombinant baculovirus was produced in accordance with the protocol for a Bac-to-Bac baculovirus expression system (produced by Invitrogen), and Sf-9 cells were infected therewith. The cells were collected and sonicated, and then the membrane fraction was collected through centrifugation. Western blotting analysis with an anti-Flag antibody was performed for the membrane fraction to confirm expression, and the membrane fraction was used as a recombinant human MGAT2 enzyme solution.
Solutions of the compounds of the present invention in DMSO were each aliquoted into 0.2-μL portions in a 384-well polystyrene microplate produced by Corning Incorporated, and 5 μL of an enzyme solution prepared with an assay buffer (100 mmol/L phosphate buffer (pH 7.4) containing 2 mmol/L DTT) and 5 μL of a substrate solution (100 mmol/L phosphate buffer (pH 7.4), 30 μmol/L 2-Oleoylglycerol, 10 μmol/L Oleoyl-CoA) were added thereto, and the resultant was stirred and centrifuged, and incubated in a moist chamber at room temperature for 1 hour. After enzymatic reaction, 50 μL of a quenching solution (containing 0.2 μmol/L Diolein-d5, 0.4% formic acid, and 50% isopropanol) containing Internal Standard (IS) was added to terminate the reaction, and the resultant was sealed in a plate produced by Shimadzu GLC Ltd., and then stirred and centrifuged, and measurement was performed by using an electrospray ionization method with a RapidFire360 and Agilent 6550 Q-TOF mass spectrometer. Diolein as a reaction product (P) of 2-Oleoylglycerol as the substrate and an ammonium adduct ion of the IS were detected, and the peak intensity ratio, P/IS, was calculated from the peak heights to evaluate the inhibitory activity. Inhibitory activities with/without addition of enzyme were defined as Control (+)/Control (−), respectively, and the respective % inhibitions were defined as 0% inhibition and 100% inhibition. The inhibitory activity was calculated from formula below with TIBCO Spotfire (produced by TIBCO Software Inc.): Inhibitory activity (%)=[1−{Sample−Control(−)}/{Control(+)−Control(−)}]*100 where Sample indicates a peak intensity ratio: P/IS, when the compound of the present invention was added.

Sequence of recombinant human MGAT2 (Q3SYC2 whole entry): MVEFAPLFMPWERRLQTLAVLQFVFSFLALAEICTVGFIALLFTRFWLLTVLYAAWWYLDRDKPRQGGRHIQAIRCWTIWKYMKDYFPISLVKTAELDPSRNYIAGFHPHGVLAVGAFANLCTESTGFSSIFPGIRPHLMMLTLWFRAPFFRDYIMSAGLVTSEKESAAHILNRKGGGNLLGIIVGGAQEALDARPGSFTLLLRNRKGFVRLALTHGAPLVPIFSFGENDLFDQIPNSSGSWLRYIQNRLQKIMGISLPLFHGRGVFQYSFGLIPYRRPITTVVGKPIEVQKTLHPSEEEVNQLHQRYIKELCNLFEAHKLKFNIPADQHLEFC

IC50 [nM]	SMILES
33	O=C1N[C@@]2(CCc3cc(OCC(F)(F)F)ccc32)Cc2nn(CCC3CC3)c(C(=O)NCC3(O)CCC3)c21 [Compound I-90]
1.2	CS(=O)(=O)CC(=O)Nc1c2c(nn1-c1ccc(Br)cn1)C[C@]1(CCc3cc(OCC(F)(F)F)ccc31)NC2=O [Compound I-91]
73	Cc1cc(C(=O)Nc2c3c(nn2CCC2CC2)C[C@]2(CCc4cc(OCC(F)(F)F)ccc42)NC3=O)on1 [Compound I-92]
160	CS(=O)(=O)CC(=O)Nc1c2c(nn1CCC1CC1)C[C@]1(CCc3cc(C#N)ccc31)NC2=O [Compound I-93]
3.7	CS(=O)(=O)CC(=O)Nc1c2c(nn1CCC1CC1)C[C@]1(CCc3cc(OCC(F)(F)F)cc(F)c31)NC2=O [Compound I-94]
5.1	CS(=O)(=O)CC(=O)Nc1c2c(nn1-c1ccc(C(F)(F)F)cc1)C[C@]1(CCc3cc(OCC(F)(F)F)ccc31)NC2=O [Compound I-95]
54	CS(=O)(=O)CC(=O)Nc1c2c(nn1C1CCCCC1)C[C@]1(CCc3cc(OCC(F)(F)F)ccc31)NC2=O [Compound I-96]
6.9	Cc1ccc(-n2nc3c(c2NC(=O)CS(C)(=O)=O)C(=O)N[C@@]2(CCc4cc(OCC(F)(F)F)ccc42)C3)cc1 [Compound I-97]
8.5	Cc1cccc(-n2nc3c(c2NC(=O)CS(C)(=O)=O)C(=O)N[C@@]2(CCc4cc(OCC(F)(F)F)ccc42)C3)c1 [Compound I-98]
6.2	CS(=O)(=O)CC(=O)Nc1c2c(nn1-c1ccc(F)cc1)C[C@]1(CCc3cc(OCC(F)(F)F)ccc31)NC2=O [Compound I-99]
32	COc1ccc(-n2nc3c(c2NC(=O)CS(C)(=O)=O)C(=O)N[C@@]2(CCc4cc(OCC(F)(F)F)ccc42)C3)cc1 [Compound I-100]
17	CS(=O)(=O)CC(=O)Nc1c2c(nn1-c1ccccn1)C[C@]1(CCc3cc(OCC(F)(F)F)ccc31)NC2=O [Compound I-101]
25	CS(=O)(=O)CC(=O)Nc1c2c(nn1CCC1CC1)C[C@]1(CCc3cc(NCC(F)(F)F)ccc31)NC2=O [Compound I-102]
320	CS(=O)(=O)CC(=O)Nc1c2c(nn1-c1ccccn1)C[C@](c1ccc(OCC(F)(F)F)cc1)(C(F)(F)F)NC2=O [Compound I-103]
12	CS(=O)(=O)CC(=O)Nc1c2c(nn1-c1ccccn1)C[C@@]1(CCc3cc(OCC(F)(F)F)ccc31)NC2=O [Compound I-104]
6.8	CS(=O)(=O)CC(=O)Nc1c2c(nn1-c1ccccn1)C[C@]1(CCOc3cc(OCC(F)(F)F)ccc31)NC2=O [Compound I-105]
11	CS(=O)(=O)CC(=O)Nc1c2c(nn1-c1ccc(C3CC3)cc1)C[C@]1(CCc3cc(OCCCC(F)(F)F)ccc31)NC2=O [Compound I-106]
760	O=C1N[C@@]2(CCc3cc(OCC(F)(F)F)cc(F)c32)Cc2nn(-c3ccccn3)c(-c3nnn[nH]3)c21 [Compound I-107]
2.9	O=C1N[C@@]2(CCc3cc(OCC(F)(F)F)ccc32)Cc2nn(CCC3CC3)c(C(=O)NS(=O)(=O)C(F)(F)F)c21 [Compound I-108]
6.1	O=C1N[C@@]2(CCc3cc(OCC(F)(F)F)ccc32)Cc2nn(CCC3CC3)c(C(=O)NS(=O)(=O)C(F)F)c21 [Compound I-109]
10	CC1(S(=O)(=O)NC(=O)c2c3c(nn2CCC2CC2)C[C@]2(CCc4cc(OCC(F)(F)F)ccc42)NC3=O)CC1 [Compound I-110]
190	O=C1N[C@@]2(CCc3cc(OCC(F)(F)F)ccc32)Cc2nn(CCC3CC3)c(C(=O)NS(=O)(=O)c3ccccc3)c21 [Compound I-111]
44.5	COCCS(=O)(=O)NC(=O)c1c2c(nn1CCC1CC1)C[C@]1(CCc3cc(OCC(F)(F)F)ccc31)NC2=O [Compound I-112]
810	O=C1N[C@@]2(CCc3cc(OCC(F)(F)F)ccc32)Cc2nn(CCC3CC3)c(C(=O)NS(=O)(=O)C3CCCC3)c21 [Compound I-113]
110	COCCCS(=O)(=O)NC(=O)c1c2c(nn1CCC1CC1)C[C@]1(CCc3cc(OCC(F)(F)F)ccc31)NC2=O [Compound I-114]
64	CCOCCS(=O)(=O)NC(=O)c1c2c(nn1CCC1CC1)C[C@]1(CCc3cc(OCC(F)(F)F)ccc31)NC2=O [Compound I-115]
260	O=C1N[C@@]2(CCc3cc(OCC(F)(F)F)ccc32)Cc2nn(CCC3CC3)c(C(=O)NS(=O)(=O)CC3CC3)c21 [Compound I-116]
51	CC(C)S(=O)(=O)NC(=O)c1c2c(nn1CCC1CC1)C[C@]1(CCc3cc(OCC(F)(F)F)ccc31)NC2=O [Compound I-117]
370	CC(C)(C)S(=O)(=O)NC(=O)c1c2c(nn1CCC1CC1)C[C@]1(CCc3cc(OCC(F)(F)F)ccc31)NC2=O [Compound I-118]

More lines, now with the values behind:

SMILES	IC50 [nM]
CCCCn1nc(NC(=O)CS(C)(=O)=O)c2c1C[C@]1(CCc3cc(OCCCC(F)(F)F)ccc31)NC2=O [Compound I-63]	400
CS(=O)(=O)CC(=O)Nc1nn(CCOCC(F)F)c2c1C(=O)N[C@@]1(CCc3cc(OCCCC(F)(F)F)ccc31)C2 [Compound I-64]	410
CS(=O)(=O)CC(=O)Nc1nn(CCC2CCCCC2)c2c1C(=O)N[C@@]1(CCc3cc(OCCCC(F)(F)F)ccc31)C2 [Compound I-65]	660
CS(=O)(=O)CC(=O)Nc1nn(CCn2cccn2)c2c1C(=O)N[C@@]1(CCc3cc(OCCCC(F)(F)F)ccc31)C2 [Compound I-66]	970
O=C1N[C@@]2(CCc3cc(OCC(F)(F)F)ccc32)Cc2nn(CCC3CC3)c(C(=O)NC3CS(=O)(=O)C3)c21 [Compound I-68]	760
CC(C)(O)CCn1nc2c(c1NC(=O)CS(C)(=O)=O)C(=O)N[C@@]1(CCc3cc(OCCCC(F)(F)F)ccc31)C2 [Compound I-69]	55
CS(=O)(=O)CC(=O)Nc1c2c(nn1CCC1CC1)C[C@](c1ccc(OCC(F)(F)F)cc1)(C(F)(F)F)NC2=O [Compound I-70]	54
CS(=O)(=O)CC(=O)Nc1c2c(nn1CCC1CC1)C[C@@]1(CCc3cc(OCC(F)(F)F)ccc31)NC2=O [Compound I-71]	3.9
O=C1N[C@@]2(CCc3cc(OCCCC(F)(F)F)ccc32)Cc2nn(CCC3CC3)c(C(=O)NS(=O)(=O)C3CC3)c21 [Compound I-72]	8.3
CS(=O)(=O)CC(=O)Nc1nn(CC2CCC(C(F)(F)F)CC2)c2c1C(=O)N[C@@]1(CCc3cc(OCCCC(F)(F)F)ccc31)C2 (stereo partly shown) [Compound I-73]	290
Cc1cccc(Cn2nc(NC(=O)CS(C)(=O)=O)c3c2C[C@]2(CCc4cc(OCCCC(F)(F)F)ccc42)NC3=O)c1 [Compound I-74]	520
Cc1ccccc1Cn1nc(NC(=O)CS(C)(=O)=O)c2c1C[C@]1(CCc3cc(OCCCC(F)(F)F)ccc31)NC2=O [Compound I-75]	580
CS(=O)(=O)CC(=O)Nc1c2c(nn1C1CCCC1)C[C@]1(CCc3cc(OCC(F)(F)F)ccc31)NC2=O [Compound I-76]	95.5
CS(=O)(=O)CC(=O)Nc1c2c(nn1-c1ccc(Cl)cn1)C[C@]1(CCc3cc(OCC(F)(F)F)ccc31)NC2=O [Compound I-77]	1
O=C(Nc1c2c(nn1CCC1CC1)C[C@]1(CCc3cc(OCC(F)(F)F)ccc31)NC2=O)c1cccnc1 [Compound I-78]	37.5
O=C(Nc1c2c(nn1CCC1CC1)C[C@]1(CCc3cc(OCC(F)(F)F)ccc31)NC2=O)c1ccccn1 [Compound I-79]	860
O=C(Nc1c2c(nn1CCC1CC1)C[C@]1(CCc3cc(OCC(F)(F)F)ccc31)NC2=O)c1ccncc1 [Compound I-80]	16
O=C(Nc1c2c(nn1CCC1CC1)C[C@]1(CCc3cc(OCC(F)(F)F)ccc31)NC2=O)c1cccnn1 [Compound I-81]	240
O=C1N[C@@]2(CCc3cc(OCC(F)(F)F)ccc32)Cc2nn(CCC3CC3)c(CNC(=O)C3CCCC3)c21 [Compound I-82]	230
CC1(C(=O)NCc2c3c(nn2CCC2CC2)C[C@]2(CCc4cc(OCC(F)(F)F)ccc42)NC3=O)COC1 [Compound I-83]	110
N#CCNC(=O)c1c2c(nn1CCC1CC1)C[C@]1(CCc3cc(OCC(F)(F)F)ccc31)NC2=O [Compound I-84]	430
O=C1N[C@@]2(CCc3cc(OCC(F)(F)F)ccc32)Cc2nn(CCC3CC3)c(C(=O)NCCO)c21 [Compound I-85]	570
O=C1N[C@@]2(CCc3cc(OCC(F)(F)F)ccc32)Cc2nn(CCC3CC3)c(C(=O)NC3CCOC3)c21 (stereo partly shown) [Compound I-86]	960
CS(=O)(=O)CCNC(=O)c1c2c(nn1CCC1CC1)C[C@]1(CCc3cc(OCC(F)(F)F)ccc31)NC2=O [Compound I-87]	440
CC1(NC(=O)c2c3c(nn2CCC2CC2)C[C@]2(CCc4cc(OCC(F)(F)F)ccc42)NC3=O)COC1 [Compound I-88]	270
O=C1N[C@@]2(CCc3cc(OCC(F)(F)F)ccc32)Cc2nn(CCC3CC3)c(C(=O)NCC3(CO)COC3)c21 [Compound I-89]	55
